Patent publication US4762846A (priority 1986, dated 1988)
“And” between values parts separate entries of the source, which are not always exact repeats. Equal entries are not always repeated. “Also recorded” adds a separate entry of the source. Structures can show the parent of a compound that is named as a salt. Where two headings read alike, the source gives them in different places.

How the values were obtained:
muscarinic receptors = type: binding, rat
[1] = tested on: benzodiazepine receptors ([3H]diazepam site); type: binding, rat
[2] = biological target: phencyclidine receptors ([3H]PCP binding site); set-up: species or system rat
[3] = tested on: cerebellar Purkinje neurons; conditions: local administration, denervation or antipsychotics; cited from earlier work
[4] = cited from earlier work
Phencyclidine Receptor [5] = type: binding, rat; conditions: for IC50: read-out: Apparent IC50
PCP receptors [6] = assay: Scatchard analysis of [3H]TCP binding after treatment with affinity ligand; set-up: species or system rat
[7] = Water solubility of Metaphit salts; conditions: relative to the hydrochloride
Phencyclidine Receptor [8] = type: binding, rat
opioid receptors = biological target: T1, opioid receptors (Rattus norvegicus, UniProt P33535); conditions: cited from earlier work
T1 construct: from tissue; host or cells: brain tissue (rat, inferred from the sister test)
T1 sequence (P33535 whole entry): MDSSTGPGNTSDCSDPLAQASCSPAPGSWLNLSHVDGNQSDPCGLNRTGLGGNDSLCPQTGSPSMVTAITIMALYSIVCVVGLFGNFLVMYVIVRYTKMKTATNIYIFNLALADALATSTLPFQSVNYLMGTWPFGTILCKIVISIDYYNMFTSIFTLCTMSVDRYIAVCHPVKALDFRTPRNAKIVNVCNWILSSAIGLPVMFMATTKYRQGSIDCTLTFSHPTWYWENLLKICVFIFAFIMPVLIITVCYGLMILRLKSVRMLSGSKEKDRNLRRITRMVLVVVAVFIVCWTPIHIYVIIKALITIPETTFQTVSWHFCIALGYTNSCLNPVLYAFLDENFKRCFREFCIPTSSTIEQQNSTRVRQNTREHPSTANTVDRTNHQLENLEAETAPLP

PCP receptors [9] = assay: [3H]PCP binding (Scatchard) in brain homogenates of rats pretreated i.c.v. with Metaphit or saline; set-up: species or system rat (male Sprague-Dawley); conditions: saline-pretreated rats; mean ±S.E.

In the case of `S=C=Nc1cccc(C2(N3CCCCC3)CCCCC2)c1` [Metaphit, 1-[1-(3-isothiocyanatophenyl)cyclohexyl]piperidine], the “Maximum % Alkylation by 10 uM Metaphit” value (muscarinic receptors) is reported as 0%, the “irreversible loss of QNB binding” value (muscarinic receptors) is reported as “without a significant loss of QNB binding” and the “Maximum % Alkylation by 10 uM Metaphit” value [1] is reported as 0%.

Compound `CCNC1(c2ccccc2)CCCCC1` [PCE, (1-Phenylcyclohexyl)ethylamine] has an IC50 ([2]; read-out: apparent IC50) of 240 nM.

For lithium, the “effect on PCP/PCMP-induced depressions of cerebellar Purkinje neurons” value [3] is listed as “strongly antagonized PCP-induced depressions”.

For `CNC1(c2ccccc2Cl)CCCCC1=O` (stereo not drawn) [Ketamine], the “psychotomimetic effects relative to PCP” value ([4]; in vivo) is given as “psychotomimetic effects that do not occur as frequently as with PCP”.

With `c1csc(C2(N3CCCCC3)CCCCC2)c1` [[3H]-TCP] the “Non-specific binding of radioligand” value (Phencyclidine Receptor [5]) was 10% and the Kd (PCP receptors [6]; control tissue, [3H]-TCP 1.0 to 150 nM, read-out: Kd for control ([3H]-TCP)) was 15 nM.

For `S=C=Nc1cccc(C2(N3CCCCC3)CCCCC2)c1` [methanesulfonate salt], the solubility in water [7] was “considerably more soluble in water than the hydrochloride”.

In the case of `S=C=Nc1csc(C2(N3CCCCC3)CCCCC2)c1` [Thiophit], the “affinity for the PCP receptor relative to other ligands” value (Phencyclidine Receptor [5]) is reported as “much higher affinity for the PCP receptors; also recorded: considerably higher affinity for the PCP receptor than either of the other two affinity ligands”, the “potency relative to metaphit” value (Phencyclidine Receptor [5]) is reported as “three times as potent as metaphit” and the IC50 (Phencyclidine Receptor [5]) is reported as 900 nM. The “Bmax ([3H]-TCP) in treated tissue” value (PCP receptors [6]; 10 μM affinity ligand) was 700 fmol/mg protein, the “reduction in Bmax” value (PCP receptors [6]; 10 μM affinity ligand) was roughly 30% and the Kd (PCP receptors [6]; 10 μM affinity ligand, value is for [3H]-TCP (1.0 to 150 nM), read-out: Kd ([3H]-TCP) in treated tissue) was 27 nM.

`CCNC1(c2cccc(N=C=S)c2)CCCCC1` [Ethylphit] gave an IC50 (Phencyclidine Receptor [5]) of 3840 nM.

With `c1ccc(C2(N3CCCCC3)CCCCC2)cc1` [PCP, 1-(1-phenylcyclohexyl)piperidine] the IC50 ([2]; read-out: IC50) was 75 nM and 70 nM, the IC50 ([2]; read-out: apparent IC50) was 150 nM and the IC50 (muscarinic receptors) was 25000 nM. The IC50 [1] was greater than 200000 nM, the IC50 (Phencyclidine Receptor [5]) was 70 nM and the washout from homogenate (Phencyclidine Receptor [8]; 10 uM PCP alone) was “completely washed out of the homogenate”. For the same compound, the IC50 (opioid receptors) was 13000 nM and the “duration of psychological side effects” value ([4]; use as anesthetic) was “more than 12 hours”.

With `c1ccc(C2(N3CCCCC3)CCCCC2)cc1` [[3H]-PCP] the Kd (PCP receptors [9]) was 237 ± 8 nM and the “Non-specific binding of radioligand” value ([2]; [3H]-PCP) was 30 % of the total binding.

Compound `CC(C)NC1(c2cccc(N=C=S)c2)CCCCC1` [Isopropylphit] has an IC50 (Phencyclidine Receptor [5]) of 2700 nM.

`CC(C)NC1(c2ccccc2)CCCCC1` [PCI] showed an IC50 ([2]; read-out: apparent IC50) of 50 nM.

For `NCCc1cc(O)c(O)cc1O` [6-OHDA], the “effect on PCP/PCMP-induced depressions of cerebellar Purkinje neurons” value [3] is listed as “completely eliminates stereospecific Purkinje cell responses to PCMP”.

For `c1csc(C2(N3CCCCC3)CCCCC2)c1` [TCP], the “potency relative to PCI” value [2] was “twice as potent as PCI”, the “affinity for the PCP receptor relative to PCP” value (Phencyclidine Receptor [5]) was “considerably higher affinity for the PCP receptor than PCP” and the IC50 (Phencyclidine Receptor [5]) was 20 nM. The washout from homogenate (Phencyclidine Receptor [8]) was “completely washed out of the homogenate”.
